Experimental data reported in patent US20060030536A1, “Combination therapies for cancer and proliferative angiopathies” (University of South Florida, priority 2004, published 2006).

Columns and labels:
Stat3 [1] = molecular target: Stat3 (Homo sapiens, UniProt P40763); details: cited from earlier work
Jak2 = details: cited from earlier work
HIF-1α = assay: Western blot of HIF-1α protein in tumor cells; assay type: cell-based, human; details: for HIF-1α protein level: A2058 (also A2056) human melanoma cells, constitutively active c-Src
VEGF = assay: Western blot of VEGF protein in tumor cells; assay type: cell-based, human
Excerpt: […] Fifty […] of nuclear or whole-cell extracts was used for Western blot analysis. HIF-1α rabbit polyclonal antibody (H-206) (1:500 dilution), HIF-1β mouse monoclonal antibody (1:1,500 dilution), AKT1 mouse monoclonal, anti-phospho-AKT rabbit polyclonal, anti-VEGF monoclonal antibody (1:1,000 dilution) were used for the Western blot analyses. Horseradish peroxidase-conjugated sheep anti-mouse and donkey anti-rabbit or anti-goat secondary antibodies were used at 1:2,000 and 1:5,000 dilutions, respectively. The signal was developed with SuperSignal West Pico Chemiluminescent Substrate (PIERCE).

Stat3 [2] = assay: EMSA of Stat3 DNA-binding activity in nuclear extracts; assay type: cell-based, human; details: for Stat3 DNA-binding activity: A2058 (also A2056) human melanoma cells
Experimental: Nuclear extracts (1-8 μg of total protein) were incubated with the ^32P-radiolabled hSEE (high-affinity Sis-Inducible Element) oligonucleotide probe. Protein-DNA complexes were resolved by 5% non-denatured polyacrylamide gel electrophoresis (PAGE) and specific STAT/DNA complexes were detected by autoradiography.

MDA-MB-468 cells [3] = assay: Trypan blue dye exclusion assay (cell death); assay type: cell-based, human; details: 48 h
Experimental: MDA-MB-468 cells were treated with vehicle DMSO (control), 10 or 20 μM LY294002; 0.05 EM JSI-124; 10+0.05 μM LY294002+JSI-124; or 20+0.05 μM LY294002+JSI-124 for 48 h, followed by trypan blue dye exclusion assay. The numbers indicate the percentage of dead cells. Standard deviations are shown with error bars.
The trypan blue dye exclusion assay was performed by mixing 20 μl of cell suspension with 20 μl of 0.4% trypan blue dye before injecting into a hemocytometer and counting. The number of cells that absorbed the dye and those that exclude the dye were counted, from which the percentage of nonviable cell number to total cell number was calculated.
To determine whether the combination treatment is more beneficial than single agent treatment to induce breast cancer cell death, MDA-MB-468 cells were treated with the indicated concentrations of either drug alone or in combinations for 48 h, followed by trypan blue dye incorporation assays.

MDA-MB-468 cells [4] = assay: TUNEL assay (apoptosis); assay type: cell-based, human; details: single agents: 20 μM LY294002; 0.1 or 0.05 μM JSI-124; 48 h
Experimental: The assay was performed following manufacturer's instruction using the APO-Direct kit. […] After removing the DNA labeling solution by rinsing cells with Rinsing Buffer, the cells were incubated with the Propidium Iodide/RNase A solution, incubated for 30 min at room temperature in the dark, and then analyzed by flow cytometry within 3 h of staining.

[5] = test system: MDA-MB-468 and MDA-MB453 cells; assay: Flow cytometry cell cycle analysis; assay type: cell-based, human; details: 20 μM LY294002, 0.05 μM JSI-124, 48 h
Experimental: MDA-453 cells were treated with vehicle DMSO (control), 20 μM LY294002; 0.05 μM JSI-124 or 20+0.05 μM LY294002+JSI-124 for 48 h, followed by flow cytometry analysis.
Cell cycle analysis based on DNA content was performed as we described previously. At each time point, cells were harvested, counted, and washed twice with wash buffer (1 mg glucose per ml PBS). Cells (2×10^6) were suspended in 0.5 ml PBS, fixed in 5 ml of 70% ethanol for over night at −20° C., centrifuged, washed once with PBS and resuspended again in 1 ml of propidium iodide staining solution (50 jig propidium iodide, 100 units RNase A and 1 mg glucose per ml PBS), and incubated at room temperature in the dark for 30 min. The cells were then analyzed with FACScan (Becton Dickinson Immunocytometry, Calif.), ModFit LT and WinMDI V.2.8 cell cycle analysis software (Verity Software; Topsham, Me.). The cell cycle distribution is shown as the percentage of cells containing G1, S, G2, and M DNA judged by propidium iodide staining.
To determine the effect of combination treatment on cell cycle changes, MDA-MB-468 and MDA-MB453 cells were treated with the indicated concentrations of LY294002, JSI-124 or their combinations for 48 h, followed by flow cytometry analysis.

[6] = test system: PI3k/Akt or Mek/Erk pathways; details: cited from earlier work
AKT1 mRNA = assay: Microarray gene expression database, AKT1 mRNA; assay type: cell-based; details: MDA-MB435 human breast cancer cell line
[7] = EGF stimulation, DU145 human prostate cancer cells (data not shown)

Sequence of Stat3 (Homo sapiens, UniProt P40763) (P40763 whole entry): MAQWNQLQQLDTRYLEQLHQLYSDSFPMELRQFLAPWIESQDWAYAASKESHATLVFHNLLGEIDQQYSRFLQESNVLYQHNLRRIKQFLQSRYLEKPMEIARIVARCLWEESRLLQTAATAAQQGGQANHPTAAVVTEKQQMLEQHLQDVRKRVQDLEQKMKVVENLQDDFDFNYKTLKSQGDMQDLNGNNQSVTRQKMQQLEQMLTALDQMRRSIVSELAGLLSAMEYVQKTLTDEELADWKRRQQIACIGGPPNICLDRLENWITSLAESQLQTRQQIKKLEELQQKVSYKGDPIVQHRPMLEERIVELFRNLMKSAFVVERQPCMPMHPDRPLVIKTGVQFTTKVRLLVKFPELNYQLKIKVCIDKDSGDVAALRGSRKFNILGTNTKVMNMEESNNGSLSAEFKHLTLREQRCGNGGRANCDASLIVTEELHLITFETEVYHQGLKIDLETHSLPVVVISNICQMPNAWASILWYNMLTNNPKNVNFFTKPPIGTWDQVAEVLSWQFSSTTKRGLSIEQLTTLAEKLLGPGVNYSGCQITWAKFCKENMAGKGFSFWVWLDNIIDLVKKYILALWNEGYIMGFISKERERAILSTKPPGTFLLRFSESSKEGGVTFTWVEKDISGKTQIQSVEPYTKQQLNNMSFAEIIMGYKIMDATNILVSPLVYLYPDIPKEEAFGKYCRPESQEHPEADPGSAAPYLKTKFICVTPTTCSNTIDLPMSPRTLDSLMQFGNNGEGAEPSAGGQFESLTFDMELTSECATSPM

For CC(=O)OC(C)(C)/C=C/C(=O)[C@](C)(O)[C@H]1[C@H](O)C[C@@]2(C)[C@@H]3CC=C4[C@H](C[C@H](O)C(=O)C4(C)C)[C@]3(C)C(=O)C[C@]12C [Cucurbitacin B], the Stat3 activation (Stat3 [1]) is listed as “suppress both Stat3 and Jak2 activation” and the Jak2 activation (Jak2) is listed as “suppress both Stat3 and Jak2 activation”.

In the case of CC(=O)OC(C)(C)/C=C/C(=O)[C@](C)(O)[C@H]1[C@H](O)C[C@@]2(C)[C@@H]3CC=C4[C@@H](C=C(O)C(=O)C4(C)C)[C@]3(C)C(=O)C[C@]12C [Cucurbitacin E], the Stat3 activation (Stat3 [1]) is listed as “suppress both Stat3 and Jak2 activation” and the Jak2 activation (Jak2) is listed as “suppress both Stat3 and Jak2 activation”.

With CCC(O)[NH+]1CC[NH+](C(O)CC)CC1.[Cl][Pt-2]([Cl])([Cl])([Cl])([Cl])[Cl] (centres unmarked) [IS3 295] the HIF-1α expression (HIF-1α; DU145 tumor cells) was “reduction in the expression of both HIF-1α and VEGF”, the VEGF expression (VEGF; DU145 tumor cells) was “reduction in the expression of both HIF-1α and VEGF” and the “Stat3 activity (DNA-binding)” value (Stat3 [2]; DU145 prostate cancer cells) was “reduction in Stat3 activity in a dose-dependent manner”.

In the case of CC(C)(O)/C=C/C(=O)[C@](C)(O)C1[C@H](O)C[C@@]2(C)C3CC=C4C(C=C(O)C(=O)C4(C)C)[C@]3(C)C(=O)C[C@]12C (some centres unmarked) [JSI-124, Cucurbitacin I], the cell death (MDA-MB-468 cells [3]; 0.05 μM JSI-124 alone) was 7%, the apoptosis induction (MDA-MB-468 cells [4]) was “Little apoptosis induction” and the “accumulation in G0/G1 phase” value [5] was “not either single drug treatment”. For the same compound, the Stat3 activation (Stat3 [1]) was “suppress both Stat3 and Jak2 activation”, the Jak2 activation (Jak2) was “suppress both Stat3 and Jak2 activation” and the “inhibition of PI3k/Akt or Mek/Erk pathways” value [6] was “does not inhibit the PI3k/Akt or Mek/Erk pathways”.

With O=c1cc(N2CCOCC2)oc2c(-c3ccccc3)cccc12 [LY294002, 2-(4-morpholinyl)-8-phenyl-4H-1-benzopyran-4-one] the cell death (MDA-MB-468 cells [3]; 20 μM LY294002 alone) was 14%, the apoptosis induction (MDA-MB-468 cells [4]) was “Little apoptosis induction” and the “accumulation in G0/G1 phase” value [5] was “not either single drug treatment”.

With CCN(CC)CCOc1ccc(Nc2ncc3cc(-c4c(Cl)cccc4Cl)c(=O)n(C)c3n2)cc1 [PD166285] the HIF-1α protein level (HIF-1α) was “dose-dependent reduction in HIF-1α protein level” and the “Stat3 DNA-binding activity” value (Stat3 [2]) was “parallel reduction in Stat3 DNA-binding activity”.

With Cc1cc(Nc2ncc3cc(-c4c(Cl)cccc4Cl)c(=O)n(C)c3n2)ccc1F [PD180970] the HIF-1α protein level (HIF-1α) was “dose-dependent reduction in HIF-1α protein level” and the “Stat3 DNA-binding activity” value (Stat3 [2]) was “parallel reduction in Stat3 DNA-binding activity”.

For C[C@@H]1C[C@@H]([C@H](O)CC2CC(=O)NC(=O)C2)C(=O)[C@@H](C)C1 [cycloheximide], the “IL-6-induced HIF-1α expression” value (HIF-1α; MCF-7 cells, 20 ng/ml IL-6, protein synthesis blocked) was “attenuation of HIF-1α expression”.

For Cucurbitacin Q, the Stat3 activation (Stat3 [1]) is listed as “suppress Stat3 activation” and the Jak2 activation (Jak2) is listed as “not Jak2 activation”.

For “Stat3 antisense oligonucleotide: antisense nucleic acid 5′-AAAAAGTGCCCAGATTGCCC-3′ used to knock down Stat3 expression (listed as DNA, chemistry not given here)”, the HIF-1α upregulation (HIF-1α; [7]) was “required for both HIF-1α and VEGF upregulation by EGF stimulation”, the VEGF upregulation (VEGF; [7]) was “required for both HIF-1α and VEGF upregulation by EGF stimulation” and the “AKT1 mRNA expression” value (AKT1 mRNA) was “reduction in AKT1 mRNA expression”.

With heregulin the HIF-1α expression (HIF-1α; MCF-7 cells, heregulin) was “induces HIF-1α expression”, the VEGF expression (VEGF; control MCF-7 cells, heregulin) was “upregulates VEGF expression” and the “activated Stat3” value (Stat3 [2]; MCF-7 cells, heregulin at 100 ng/ml) was “detectable levels of activated Stat3”.
